Test results as given in patent publication US4950591A, “Membrane Na^+ channel protein and related therapeutic compounds” (priority 1987, dated 1990).

Assays:
[1] = molecular target: T1, purified Na^+ channel protein (Bos taurus, UniProt A5D7U4+F1MJW3+P55270); assay: Amiloride inhibition of purified reconstituted channel; type: biochemical, bovine
T1 construct: purifying a membrane protein from bovine kidney cortex and bovine trachea epithelia apical membranes; from tissue
T1 sequence (P55270 1-650): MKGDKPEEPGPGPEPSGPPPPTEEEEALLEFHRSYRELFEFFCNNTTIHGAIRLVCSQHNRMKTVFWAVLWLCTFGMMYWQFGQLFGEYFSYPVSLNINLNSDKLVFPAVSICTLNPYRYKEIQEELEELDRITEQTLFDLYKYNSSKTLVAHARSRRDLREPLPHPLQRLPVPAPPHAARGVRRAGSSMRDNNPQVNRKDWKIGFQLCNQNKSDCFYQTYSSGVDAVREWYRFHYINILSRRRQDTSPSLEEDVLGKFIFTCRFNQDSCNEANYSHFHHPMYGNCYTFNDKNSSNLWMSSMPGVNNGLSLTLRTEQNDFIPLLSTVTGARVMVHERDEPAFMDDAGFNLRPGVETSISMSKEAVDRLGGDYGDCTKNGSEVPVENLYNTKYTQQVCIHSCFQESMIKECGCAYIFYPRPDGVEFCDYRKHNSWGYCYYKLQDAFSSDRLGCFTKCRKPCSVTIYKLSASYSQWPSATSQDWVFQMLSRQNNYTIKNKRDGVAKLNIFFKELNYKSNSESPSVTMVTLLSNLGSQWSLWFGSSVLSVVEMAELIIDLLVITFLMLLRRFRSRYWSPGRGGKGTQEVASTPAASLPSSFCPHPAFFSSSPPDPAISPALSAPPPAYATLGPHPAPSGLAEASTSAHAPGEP
T1 sequence (A5D7U4 1-641): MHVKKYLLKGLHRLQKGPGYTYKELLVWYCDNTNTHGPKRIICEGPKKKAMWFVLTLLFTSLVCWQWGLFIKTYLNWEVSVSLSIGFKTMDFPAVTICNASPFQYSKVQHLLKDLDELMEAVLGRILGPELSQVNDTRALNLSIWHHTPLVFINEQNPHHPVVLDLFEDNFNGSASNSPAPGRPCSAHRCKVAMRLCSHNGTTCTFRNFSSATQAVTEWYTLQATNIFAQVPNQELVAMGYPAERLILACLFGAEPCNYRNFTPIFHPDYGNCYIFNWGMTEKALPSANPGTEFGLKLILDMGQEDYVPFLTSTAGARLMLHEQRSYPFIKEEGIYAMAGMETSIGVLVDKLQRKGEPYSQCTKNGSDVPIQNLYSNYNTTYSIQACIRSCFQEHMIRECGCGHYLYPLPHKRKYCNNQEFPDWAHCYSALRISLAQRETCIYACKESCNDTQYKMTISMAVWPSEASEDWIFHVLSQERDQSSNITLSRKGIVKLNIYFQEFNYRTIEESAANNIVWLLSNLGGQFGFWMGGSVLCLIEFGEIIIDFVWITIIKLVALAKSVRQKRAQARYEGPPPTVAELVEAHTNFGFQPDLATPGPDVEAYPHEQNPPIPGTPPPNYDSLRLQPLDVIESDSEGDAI
T1 sequence (F1MJW3 1-652): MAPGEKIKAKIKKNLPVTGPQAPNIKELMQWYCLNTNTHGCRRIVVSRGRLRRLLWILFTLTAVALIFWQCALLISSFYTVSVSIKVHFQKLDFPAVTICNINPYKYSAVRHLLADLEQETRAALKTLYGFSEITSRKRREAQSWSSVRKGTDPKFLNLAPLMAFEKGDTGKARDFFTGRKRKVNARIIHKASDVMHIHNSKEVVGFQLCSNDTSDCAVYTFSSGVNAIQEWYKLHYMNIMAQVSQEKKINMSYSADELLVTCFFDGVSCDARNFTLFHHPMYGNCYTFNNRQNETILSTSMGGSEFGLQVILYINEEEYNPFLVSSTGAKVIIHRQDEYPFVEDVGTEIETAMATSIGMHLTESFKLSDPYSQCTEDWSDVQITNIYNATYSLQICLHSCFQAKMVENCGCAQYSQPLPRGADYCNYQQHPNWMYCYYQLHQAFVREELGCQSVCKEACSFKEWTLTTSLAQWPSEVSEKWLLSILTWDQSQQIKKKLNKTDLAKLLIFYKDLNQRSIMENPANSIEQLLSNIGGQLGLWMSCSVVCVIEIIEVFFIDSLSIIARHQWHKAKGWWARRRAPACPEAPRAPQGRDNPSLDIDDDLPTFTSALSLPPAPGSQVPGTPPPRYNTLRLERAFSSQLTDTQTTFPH
Procedure: By way of illustrative example, bovine kidney cortex cell membranes or bovine trachea apical cell membranes are collected and pooled until the pooled membranes contain about 100 mg of protein as determined by the Lowry method. The pooled membranes in 100 mM HEPES, pH 7.4, are centrifuged at 40,000 g for 30 minutes. The pelleted material was resuspended in 100 mM HEPES, pH 7.4, containing 3% sodium cholate (4.5-5.5 mg of membrane protein/3 ml of solution) containing in addition bacitracin (100 microgram/g), phenylmethylsulfonyl fluoride (0.5%) and iodoacetamide (1 mM). The mixture is chilled on ice for 60 minutes with occasional agitation, then centrifuged at 40,000 g for 30 minutes. The supernatant, containing the solubilized protein, may be purified immediately or frozen at -70° for later purification.
The solubilized protein preparation obtained from about 10 g of cell membrane is purified using 100 ml of the affinity gel described in Example 2. The protein solution and gel are stirred overnight in the cold. The gel is washed with 20 volumes of HEPES solution, pH 7.2, by filtration. The adsorbed protein is eluted with 10^-3 M amiloride in dilute saline containing 0.5% cholate by stirring for two hours. The elution was repeated and the combined eluates are dialyzed against 100 mM HEPES/1% sodium cholate for one week in the cold, changing buffers once or twice a day. […]

[2] = molecular target: T2, Na^+ channel in crude membrane preparation (trachea epithelial) (Bos taurus, UniProt A5D7U4+F1MJW3+P55270); assay: Amiloride inhibition of crude membrane preparation; type: biochemical, bovine
T2 construct: results for both the purified reconstituted channel protein and for the crude membrane preparation; from tissue; host or cells: trachea epithelial membranes, crude preparation (bovine)
T2 sequence (P55270 1-650): T1 sequence (P55270 1-650)
T2 sequence (A5D7U4 1-641): T1 sequence (A5D7U4 1-641)
T2 sequence (F1MJW3 1-652): T1 sequence (F1MJW3 1-652)

N=C(N)NC(=O)c1nc(Cl)c(N)nc1N [amiloride, 3,5-diamino-N-(aminoiminomethyl)-6-chloropyrazinecarboxamide]
IC50 ([1]; Amiloride, IC50 (micromolar), PURIFIED, Table I, trachea epithelial, purified reconstituted channel protein): 70 nM
IC50 ([1]; IC50 (amiloride sensitivity of purified channel), purified channel): ~70 nM
IC50 [2]: 100 nM
